# Measured values taken from ChEMBL document CHEMBL1201862, “PubChem BioAssay data set” (2004).
# Activity calls are given as the source filed them.
# What was measured:
# [1] = target: T1, Methionyl-tRNA synthetase, putative (Trypanosoma brucei brucei, UniProt Q38C91); type: functional, Trypanosoma brucei brucei strain 927/4 GUTat10.1
# [2] = target: T1, Methionyl-tRNA synthetase, putative; type: functional, Trypanosoma brucei brucei strain 927/4 GUTat10.1; remark: listed apart in the source
# [3] = Counterscreen for inhibitors of Trypanosoma brucei methionyl tRNA synthetase (MetRS): Luminescence-based cell-based high throughput dose response assay to identify compounds that are cytotoxic to Jurkat human T lymphocyte cells.; type: functional
# Fatty acid synthase [4] = target: T2, Fatty acid synthase (Homo sapiens, UniProt P49327); experiment: FAS thioesterase domain inhibitors, dose response, biochemical, kinetic fluorescence intensity (AID 624326); type: functional;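 further: rate of fluorescence rise from hydrolysis of a fluorogenic O-methyl fluorescein ester substrate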
# [5] = Luminescence Cell-Based Dose Response HTS to Identify Inhibitors of 5'UTR Stem-Loop Driven Prion Protein mRNA Translation in H4 Neuroglioblastoma Cells. [Related pubchem assays: 1827 (Project Summary), 1813 (Primary HTS)]; type: functional
# Streptococcus = experiment: Group A Streptococcus viability loss, dose response, counter-screen for streptokinase expression inhibitor project, luminescence, BacTiterGlo (AID 1915); type: functional, organism-based;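 further: potency for reduction of bacterial viability or growth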
# Streptokinase A = target: T3, Streptokinase A (Streptococcus pyogenes serotype M1, UniProt P10520); experiment: S. pyogenes streptokinase expression inhibitors, potency, dose response, plasminogen activation absorbance, OD405 (AID 1914); type: functional, Streptococcus pyogenes M1 GAS;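 further: secreted streptokinase activity via plasminogen activation per viability signal from cell pellet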
# T3 sequence (P10520 whole entry): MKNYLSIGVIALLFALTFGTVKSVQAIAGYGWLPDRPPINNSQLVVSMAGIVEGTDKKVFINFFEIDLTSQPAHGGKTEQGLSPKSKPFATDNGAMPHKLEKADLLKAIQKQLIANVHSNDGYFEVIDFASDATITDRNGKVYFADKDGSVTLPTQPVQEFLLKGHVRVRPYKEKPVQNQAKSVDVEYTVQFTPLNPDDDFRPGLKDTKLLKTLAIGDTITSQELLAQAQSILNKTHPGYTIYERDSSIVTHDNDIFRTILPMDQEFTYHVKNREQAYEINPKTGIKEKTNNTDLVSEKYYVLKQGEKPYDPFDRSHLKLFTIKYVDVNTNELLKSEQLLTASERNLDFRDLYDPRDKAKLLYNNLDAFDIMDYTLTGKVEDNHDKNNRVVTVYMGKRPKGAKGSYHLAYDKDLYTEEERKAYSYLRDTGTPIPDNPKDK
# [6] = inhibitors of SNCA 5'UTR-driven reporter translation, confirmation, H4 neuroglioma cells, luminescence (AID 1988); type: functional, cell-based
# INS1 = experiment: beta cell apoptosis inhibitors, cytokine rescue, dose response, luminescence, retest (AID 449756); type: functional, cell-based; details: Rattus norvegicus;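 further: cell death triggered by IL-1 beta plus TNF-alpha plus IFN-gamma mixture; protective hits raise ATP signal compared with cytokine alone wells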
# [7] = target: ATP-binding cassette sub-family B member 6 (Homo sapiens, UniProt Q9NP58); experiment: ABCB6 transporter inhibitors, porphyrin accumulation, dose response, flow cytometry, K562-ABCB6 cells, cherry pick 02 (AID 624487); type: functional; details: read-out: EC50_MICROM
# [8] = control 3'UTR Renilla luciferase suppression, dose response, counter-screen for Shn3 inhibitor project, cell-based, Clone20-Shn3RL, cherry-picked (AID 624133); type: functional
# [9] = test system: Streptococcus sp. 'group A'; experiment: growth inhibition of control SK(-) GAS strain, dose response, counter-screen for streptokinase expression inhibitor project, luminescence, kanamycin, BacTiterGlo, confirmation (AID 1900); type: functional, organism-based
# [10] = Shn3 3'UTR reporter inhibitors, dose response, cell-based, Clone20 osteoblasts, firefly luciferase, cherry-picked (AID 624132); type: functional;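 further: firefly luciferase luminescence from reporter carrying the Shn3 3'UTR in osteoblasts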
# Paired box protein Pax-8 = Paired box protein Pax-8 (Homo sapiens, UniProt Q06710); experiment: inhibitors of PAX8-driven TPO luciferase reporter, dose response, RMG-I cells, cherry-pick (AID 687027); type: functional, cell-based;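 further: luciferase reporter driven by Pax8 target thyroperoxidase promoter measured by SteadyGlo luminescence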
# Fatty acid synthase [11] = target: T2, Fatty acid synthase; experiment: FAS thioesterase domain inhibitors, dose response, biochemical, endpoint fluorescence intensity, uHTS hits (AID 624327); type: functional;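 further: fluorescence from hydrolysis of an O-methyl fluorescein acyl ester substrate by the enzyme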
# [12] = HepG2 cell cytotoxicity, dose response, cytotoxicity control for Shn3 inhibitor project, CellTiter-Glo, cherry-picked (AID 624134); type: functional, cell-based
# [13] = inhibitors of firefly luciferase expression or activity, dose response, H4 neuroglioma cells, luminescence (AID 1990); type: functional, cell-based
# [14] = non-specific cell cytotoxicity, dose response, cytotoxicity control for PAX8 inhibitor project, plate reader, dry powder samples (AID 743021); type: functional, cell-based
# [15] = target: 5-hydroxytryptamine receptor 2A (Mus musculus, UniProt P35363); type: functional, cell-based;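 further: CHO-K1 cells with tagged receptor and beta-arrestin; agonist potency measured as compound-induced activation of the receptor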
# Mu-type opioid receptor = Mu-type opioid receptor (Homo sapiens, UniProt P35372); type: functional, cell-based;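 further: U2OS cells with beta-arrestin recruitment to OPRM1 by beta-gal complementation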
# Beta-lactamase [16] = target: T4, Beta-lactamase (Pseudomonas aeruginosa, UniProt Q79MP6); experiment: IMP-1 metallo-beta-lactamase inhibitors, dose response, selectivity assay for VIM-2 inhibitor project, biochemical, epi-absorbance (AID 1920)
# Beta-lactamase [17] = target: T4, Beta-lactamase; experiment: […] counterscreen for selective VIM-2 inhibitors: dose response biochemical high throughput screening assay to identify inhibitors of IMP-1 metallo-beta-lactamase.
# Beta-lactamase [18] = target: Beta-lactamase (Salmonella choleraesuis (strain SC-B67), UniProt Q5J463); experiment: Epi-absorbance-based counterscreen for selective VIM-2 inhibitors: dose response biochemical high throughput screening assay to identify inhibitors of TEM-1 serine-beta-lactamase.
# [19] = miR-122 activators in hepatoma reporter cells, dose response, cell-based, Huh7 psiCHECK-miR122, Renilla luciferase, cherry-picked (AID 651956); type: functional;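 further: huh7 hepatoma cells stably carrying a psiCHECK-2 miR-122 sensor plasmid; renilla luciferase signal reporting endogenous miR-122 activity after 48 h compound exposure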
# [20] = target: T5, Small ubiquitin-related modifier 1 (Homo sapiens, UniProt P63165); experiment: inhibitors of SUMO1 partner interactions, dose response, biochemical, FRET (AID 624383); type: functional; details: read-out: IC50_Mean
# Estrogen receptor = Estrogen receptor (Homo sapiens, UniProt P03372);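 further: potency for inhibiting coactivator peptide recruitment to the receptor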
# [21] = target: T5, Small ubiquitin-related modifier 1; experiment: inhibitors of SUMO1 peptide binding, dose response, biochemical, fluorescence polarization, uHTS hits (AID 624382); type: functional; details: read-out: IC50_Mean
# Estrogen receptor beta [22] = target: T6, Estrogen receptor beta (Homo sapiens, UniProt Q92731);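 further: recombinant ER-beta bound to coactivator SRC1 peptide in presence of estradiol agonist; inhibitors block coactivator peptide binding and lower the FRET signal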
# Estrogen receptor beta [23] = target: T6, Estrogen receptor beta; experiment: ERβ–SRC-3 coactivator interaction inhibitors, confirmation, orthogonal assay, biochemical, ELISA, streptavidin-HRP readout (AID 1060)
# HEK293 = experiment: inhibitors of LMP1-driven NF-kB reporter, dose response, cell-based, HEK293, luciferase, cherry-pick (AID 588343); type: functional; details: Homo sapiens
# Interleukin-8 [24] = target: T7, Interleukin-8 (Homo sapiens, UniProt P10145); experiment: Dose Response confirmation of uHTS small molecule hits for cystic fibrosis induced NFkb Inhibitors in a PAF-induced IL8 counterscreen.; type: functional; details: read-out: IC50_Mean
# Interleukin-8 [25] = target: T7, Interleukin-8; experiment: Dose Response confirmation of uHTS small molecule hits for cystic fibrosis induced NFkb Inhibitors in a TNFa-induced IL8 counterscreen.; type: functional; details: read-out: IC50_Mean
# [26] = target: T8, Short transient receptor potential channel 4 (Mus musculus, UniProt Q9QUQ5); experiment: mouse TRPC4 channel inhibitors, dose response, cell-based, HEK293 TRPC4/mu-opioid, Fluo-4 calcium (AID 434942); type: functional;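 further: potency of inhibitors blocking the TRPC4 calcium response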
# T8 sequence (Q9QUQ5 whole entry): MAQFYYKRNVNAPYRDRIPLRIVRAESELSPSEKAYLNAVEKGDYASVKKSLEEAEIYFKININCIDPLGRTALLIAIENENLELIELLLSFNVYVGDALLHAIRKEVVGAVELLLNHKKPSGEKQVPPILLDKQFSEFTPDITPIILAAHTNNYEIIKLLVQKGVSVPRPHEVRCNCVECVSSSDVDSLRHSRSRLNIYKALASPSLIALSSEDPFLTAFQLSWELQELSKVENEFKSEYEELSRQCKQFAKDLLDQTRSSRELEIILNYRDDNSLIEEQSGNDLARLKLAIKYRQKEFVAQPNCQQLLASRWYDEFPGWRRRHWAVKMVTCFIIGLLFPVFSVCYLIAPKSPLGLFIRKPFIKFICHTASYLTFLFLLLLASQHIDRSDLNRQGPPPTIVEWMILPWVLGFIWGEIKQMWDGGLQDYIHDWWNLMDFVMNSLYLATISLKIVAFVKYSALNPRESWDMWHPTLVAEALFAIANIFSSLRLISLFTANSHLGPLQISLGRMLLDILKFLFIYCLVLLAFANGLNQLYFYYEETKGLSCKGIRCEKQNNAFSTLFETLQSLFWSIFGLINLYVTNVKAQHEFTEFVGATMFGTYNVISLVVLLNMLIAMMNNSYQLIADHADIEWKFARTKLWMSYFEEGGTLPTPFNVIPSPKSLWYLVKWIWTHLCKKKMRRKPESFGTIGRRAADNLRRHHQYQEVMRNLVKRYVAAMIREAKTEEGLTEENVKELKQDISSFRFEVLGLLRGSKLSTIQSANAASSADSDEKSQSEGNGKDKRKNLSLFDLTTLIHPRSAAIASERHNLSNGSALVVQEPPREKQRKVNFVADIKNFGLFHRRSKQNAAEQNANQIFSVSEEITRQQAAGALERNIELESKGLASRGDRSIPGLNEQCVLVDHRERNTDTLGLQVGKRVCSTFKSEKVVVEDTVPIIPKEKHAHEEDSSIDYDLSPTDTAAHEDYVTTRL
# [27] = target: T8, Short transient receptor potential channel 4; experiment: mouse TRPC4 channel activators, dose response, cell-based, HEK293 TRPC4/mu-opioid, Fluo-4 calcium (AID 434937); type: functional
# [28] = ARNT/TACC3 interaction disruptors, potency, confirmation, biochemical, AlphaScreen, cherry-picked samples (AID 651703); type: functional, Homo sapiens;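 further: His-tagged ARNT PAS-B domain paired with GST-TACC3 E629A dimer coactivator fragment; potency of inhibitors that break up the complex and lower AlphaScreen signal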
# [29] = target: T9, Rac GTPase-activating protein 1 (Homo sapiens, UniProt Q9H0H5); experiment: MgcRacGAP GTPase-activating activity inhibitors, confirmation, biochemical, ADP Hunter fluorescence, primary and confirmatory (AID 624330); type: functional
# T9 sequence (Q9H0H5 whole entry): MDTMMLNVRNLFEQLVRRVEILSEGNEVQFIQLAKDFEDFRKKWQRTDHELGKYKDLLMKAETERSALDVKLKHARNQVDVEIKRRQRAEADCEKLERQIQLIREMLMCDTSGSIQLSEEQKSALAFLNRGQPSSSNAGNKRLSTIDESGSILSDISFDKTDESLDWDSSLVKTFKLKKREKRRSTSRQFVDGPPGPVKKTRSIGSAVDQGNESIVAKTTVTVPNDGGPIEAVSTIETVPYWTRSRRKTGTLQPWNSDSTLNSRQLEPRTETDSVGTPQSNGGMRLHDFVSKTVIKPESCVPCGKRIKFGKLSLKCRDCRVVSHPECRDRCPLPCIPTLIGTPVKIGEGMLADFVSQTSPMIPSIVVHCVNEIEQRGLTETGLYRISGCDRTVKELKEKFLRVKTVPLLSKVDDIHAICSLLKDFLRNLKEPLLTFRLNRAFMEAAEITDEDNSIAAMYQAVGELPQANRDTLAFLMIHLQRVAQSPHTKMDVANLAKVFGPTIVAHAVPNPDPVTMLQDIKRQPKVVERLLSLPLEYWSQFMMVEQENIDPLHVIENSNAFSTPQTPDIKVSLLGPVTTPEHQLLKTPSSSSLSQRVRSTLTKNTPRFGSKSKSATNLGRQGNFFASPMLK
# Beta Lactamase = Beta Lactamase (Pseudomonas aeruginosa, UniProt Q932Y6); experiment: beta-lactamase reporter inhibitor potency, dose response, artefact control for NOD2-RIPK2 interaction inhibitor project, BLA reporter cells, FRET fluorescence (AID 651552); type: functional, cell-based
# [30] = target: Heat shock protein HSP 90-alpha (Homo sapiens, UniProt P07900); type: functional, organism-based
# [31] = HeLa cell cytotoxicity, dose response, cytotoxicity control for MgcRacGAP inhibitor project (AID 624300); type: functional
# [32] = Fluorescence-based cell-based high throughput dose response assay for inhibitors of the interaction of nucleotide-binding oligomerization domain containing 2 (NOD2) and the receptor-interacting serine-threonine kinase 2 (RIPK2).; type: functional; details: Homo sapiens
# Sequence of Paired box protein Pax-8 (Q06710 whole entry, the tested form may be a part): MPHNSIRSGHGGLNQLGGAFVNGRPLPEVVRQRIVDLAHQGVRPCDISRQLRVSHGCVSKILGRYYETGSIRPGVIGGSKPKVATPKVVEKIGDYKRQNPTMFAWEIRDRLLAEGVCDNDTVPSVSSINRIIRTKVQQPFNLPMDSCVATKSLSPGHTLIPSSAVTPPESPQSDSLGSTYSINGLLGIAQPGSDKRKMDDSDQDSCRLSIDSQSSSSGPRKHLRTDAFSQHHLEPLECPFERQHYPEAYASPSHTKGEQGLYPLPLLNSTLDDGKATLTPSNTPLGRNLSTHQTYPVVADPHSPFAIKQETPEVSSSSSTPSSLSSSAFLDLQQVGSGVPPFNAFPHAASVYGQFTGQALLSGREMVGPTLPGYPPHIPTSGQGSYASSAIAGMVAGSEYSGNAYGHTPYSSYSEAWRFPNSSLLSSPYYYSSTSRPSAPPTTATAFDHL
# T5 sequence (P63165 whole entry): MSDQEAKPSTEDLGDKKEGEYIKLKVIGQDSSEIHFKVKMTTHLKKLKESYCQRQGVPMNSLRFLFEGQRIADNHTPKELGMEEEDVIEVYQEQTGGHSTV
# T4 sequence (Q79MP6 whole entry): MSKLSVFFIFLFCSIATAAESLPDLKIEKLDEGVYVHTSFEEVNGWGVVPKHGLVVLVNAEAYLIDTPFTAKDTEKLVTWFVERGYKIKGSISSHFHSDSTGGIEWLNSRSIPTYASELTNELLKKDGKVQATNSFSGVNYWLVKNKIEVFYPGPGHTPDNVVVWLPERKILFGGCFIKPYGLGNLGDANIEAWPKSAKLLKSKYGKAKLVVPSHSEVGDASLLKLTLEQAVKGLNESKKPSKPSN
# T6 sequence (Q92731 whole entry): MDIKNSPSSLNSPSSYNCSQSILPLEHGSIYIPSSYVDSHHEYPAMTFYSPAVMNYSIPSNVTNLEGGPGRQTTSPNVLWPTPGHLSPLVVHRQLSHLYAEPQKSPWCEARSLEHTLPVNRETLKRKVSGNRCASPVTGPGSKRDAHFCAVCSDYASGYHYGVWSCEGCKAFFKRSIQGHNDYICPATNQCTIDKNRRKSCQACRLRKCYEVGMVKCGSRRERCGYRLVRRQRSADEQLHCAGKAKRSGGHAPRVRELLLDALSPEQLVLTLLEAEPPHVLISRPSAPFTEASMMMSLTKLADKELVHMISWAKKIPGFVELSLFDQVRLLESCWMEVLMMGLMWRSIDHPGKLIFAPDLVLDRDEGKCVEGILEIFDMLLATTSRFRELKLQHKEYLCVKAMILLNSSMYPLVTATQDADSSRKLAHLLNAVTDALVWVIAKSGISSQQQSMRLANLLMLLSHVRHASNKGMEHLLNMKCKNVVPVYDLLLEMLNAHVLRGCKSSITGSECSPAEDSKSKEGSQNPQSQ
# T1 sequence (Q38C91 whole entry): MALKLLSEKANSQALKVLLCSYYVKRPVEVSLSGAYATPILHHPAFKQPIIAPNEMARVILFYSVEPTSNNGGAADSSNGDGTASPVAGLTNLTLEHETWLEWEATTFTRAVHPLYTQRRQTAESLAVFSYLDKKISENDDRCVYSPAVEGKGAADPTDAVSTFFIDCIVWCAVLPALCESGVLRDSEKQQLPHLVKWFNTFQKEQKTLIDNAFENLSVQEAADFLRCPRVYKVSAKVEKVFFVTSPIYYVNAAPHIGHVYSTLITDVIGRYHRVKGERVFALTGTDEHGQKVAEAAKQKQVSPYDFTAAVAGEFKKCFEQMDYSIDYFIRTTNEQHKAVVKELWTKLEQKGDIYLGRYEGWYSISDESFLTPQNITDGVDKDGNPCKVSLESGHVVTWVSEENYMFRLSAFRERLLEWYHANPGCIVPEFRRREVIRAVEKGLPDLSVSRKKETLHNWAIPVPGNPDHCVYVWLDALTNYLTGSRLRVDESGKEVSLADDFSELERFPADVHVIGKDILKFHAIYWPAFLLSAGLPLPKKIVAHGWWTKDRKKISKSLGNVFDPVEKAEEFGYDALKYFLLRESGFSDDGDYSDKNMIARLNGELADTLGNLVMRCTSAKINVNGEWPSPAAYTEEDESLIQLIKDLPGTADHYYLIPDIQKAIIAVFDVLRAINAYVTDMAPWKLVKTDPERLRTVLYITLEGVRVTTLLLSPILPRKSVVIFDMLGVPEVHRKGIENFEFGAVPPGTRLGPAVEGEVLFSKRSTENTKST
# T2 sequence (P49327 whole entry, the tested form may be a part): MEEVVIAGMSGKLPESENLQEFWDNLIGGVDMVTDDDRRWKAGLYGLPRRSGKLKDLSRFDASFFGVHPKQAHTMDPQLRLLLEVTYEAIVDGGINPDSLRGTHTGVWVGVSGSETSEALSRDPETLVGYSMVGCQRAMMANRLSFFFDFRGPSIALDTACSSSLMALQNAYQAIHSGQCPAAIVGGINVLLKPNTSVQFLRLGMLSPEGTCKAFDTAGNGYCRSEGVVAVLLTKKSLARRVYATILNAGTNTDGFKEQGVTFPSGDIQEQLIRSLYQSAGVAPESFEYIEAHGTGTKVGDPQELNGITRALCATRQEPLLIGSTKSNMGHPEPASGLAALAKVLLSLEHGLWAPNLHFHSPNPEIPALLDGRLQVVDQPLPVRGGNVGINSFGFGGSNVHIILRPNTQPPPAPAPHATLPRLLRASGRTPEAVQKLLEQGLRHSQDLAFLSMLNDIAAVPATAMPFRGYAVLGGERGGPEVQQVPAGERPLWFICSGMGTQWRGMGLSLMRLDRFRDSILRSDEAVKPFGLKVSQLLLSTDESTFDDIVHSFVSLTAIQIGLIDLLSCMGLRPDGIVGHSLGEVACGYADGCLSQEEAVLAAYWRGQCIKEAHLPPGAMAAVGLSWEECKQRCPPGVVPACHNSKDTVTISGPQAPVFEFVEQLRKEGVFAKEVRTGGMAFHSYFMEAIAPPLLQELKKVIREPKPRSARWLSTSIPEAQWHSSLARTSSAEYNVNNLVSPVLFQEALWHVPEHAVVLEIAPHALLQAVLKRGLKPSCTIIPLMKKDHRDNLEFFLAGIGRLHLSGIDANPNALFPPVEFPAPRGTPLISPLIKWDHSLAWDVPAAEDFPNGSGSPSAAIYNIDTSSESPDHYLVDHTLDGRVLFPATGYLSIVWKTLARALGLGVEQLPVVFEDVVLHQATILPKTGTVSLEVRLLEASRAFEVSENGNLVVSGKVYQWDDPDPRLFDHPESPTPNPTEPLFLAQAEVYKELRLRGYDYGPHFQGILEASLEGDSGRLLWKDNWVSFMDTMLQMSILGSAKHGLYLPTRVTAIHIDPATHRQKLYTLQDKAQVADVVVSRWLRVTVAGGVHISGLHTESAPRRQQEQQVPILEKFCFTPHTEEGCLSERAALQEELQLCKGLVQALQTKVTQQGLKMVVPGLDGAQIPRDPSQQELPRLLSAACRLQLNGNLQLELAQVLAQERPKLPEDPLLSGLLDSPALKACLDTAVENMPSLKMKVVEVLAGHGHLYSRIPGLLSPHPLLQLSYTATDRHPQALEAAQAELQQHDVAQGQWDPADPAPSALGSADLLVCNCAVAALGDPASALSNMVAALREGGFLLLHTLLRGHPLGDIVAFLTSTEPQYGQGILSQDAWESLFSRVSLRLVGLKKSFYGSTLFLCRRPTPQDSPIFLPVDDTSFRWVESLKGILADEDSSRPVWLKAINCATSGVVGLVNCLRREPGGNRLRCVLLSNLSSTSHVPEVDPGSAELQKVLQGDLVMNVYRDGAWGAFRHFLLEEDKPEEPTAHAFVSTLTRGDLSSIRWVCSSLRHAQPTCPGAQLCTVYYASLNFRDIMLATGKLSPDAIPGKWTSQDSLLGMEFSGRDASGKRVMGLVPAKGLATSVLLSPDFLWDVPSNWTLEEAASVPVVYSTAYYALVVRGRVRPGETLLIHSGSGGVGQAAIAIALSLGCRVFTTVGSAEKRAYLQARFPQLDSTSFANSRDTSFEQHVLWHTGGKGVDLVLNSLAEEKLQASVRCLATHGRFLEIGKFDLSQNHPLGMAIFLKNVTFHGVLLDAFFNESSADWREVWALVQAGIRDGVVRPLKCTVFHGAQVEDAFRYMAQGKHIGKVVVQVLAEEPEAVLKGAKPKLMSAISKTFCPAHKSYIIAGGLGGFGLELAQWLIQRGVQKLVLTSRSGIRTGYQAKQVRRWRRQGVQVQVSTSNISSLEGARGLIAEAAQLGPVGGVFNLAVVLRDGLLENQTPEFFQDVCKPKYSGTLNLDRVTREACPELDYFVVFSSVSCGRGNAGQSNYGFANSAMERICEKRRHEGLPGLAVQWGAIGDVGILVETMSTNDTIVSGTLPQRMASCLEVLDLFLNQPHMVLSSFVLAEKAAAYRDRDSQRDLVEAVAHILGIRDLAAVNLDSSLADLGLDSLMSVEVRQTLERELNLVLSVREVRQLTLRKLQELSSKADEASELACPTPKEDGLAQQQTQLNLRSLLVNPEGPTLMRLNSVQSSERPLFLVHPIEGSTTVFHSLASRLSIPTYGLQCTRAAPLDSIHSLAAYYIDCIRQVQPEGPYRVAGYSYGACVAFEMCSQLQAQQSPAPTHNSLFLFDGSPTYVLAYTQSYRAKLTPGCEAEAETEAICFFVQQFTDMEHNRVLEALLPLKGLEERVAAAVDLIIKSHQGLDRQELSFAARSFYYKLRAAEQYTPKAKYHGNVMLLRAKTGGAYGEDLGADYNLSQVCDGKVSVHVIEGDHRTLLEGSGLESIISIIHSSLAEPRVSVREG
# T7 sequence (P10145 whole entry): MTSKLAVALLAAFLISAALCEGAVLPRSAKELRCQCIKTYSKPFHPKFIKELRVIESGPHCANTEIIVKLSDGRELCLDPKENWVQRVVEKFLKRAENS
# Sequence of Beta-lactamase (Salmonella choleraesuis (strain SC-B67), UniProt Q5J463) (Q5J463 whole entry): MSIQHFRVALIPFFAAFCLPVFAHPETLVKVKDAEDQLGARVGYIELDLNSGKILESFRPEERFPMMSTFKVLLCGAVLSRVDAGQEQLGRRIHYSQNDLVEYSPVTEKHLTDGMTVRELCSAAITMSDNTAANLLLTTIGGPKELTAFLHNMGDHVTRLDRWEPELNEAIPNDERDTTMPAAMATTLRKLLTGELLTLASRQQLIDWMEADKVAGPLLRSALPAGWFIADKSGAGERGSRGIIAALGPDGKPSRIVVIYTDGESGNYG
smiles,measurement,setting,value
Cc1cccc(NC(=O)CCNC(=O)c2ccc(Br)cc2)c1,IC50,[1],5.8 µM (active)
same,IC50,[2],12.9 µM (inactive)
same,IC50,[3],83.3 µM (inactive)
CCOc1ccccc1NC(=O)c1nc(S(=O)(=O)Cc2cccc(C)c2)ncc1Cl,IC50,Fatty acid synthase [4],3.06 µM (active)
same,EC50,[5],10.9 µM (active)
same,EC50,Streptococcus,15.7 µM (active)
same,EC50,Streptokinase A,1.28 µM (active)
same,EC50,[6],8.12 µM (active)
same,AC50,INS1,5.15 µM (active)
same,EC50,[7],11.5 µM (active)
same,AC50,[8],6.38 µM (active)
same,EC50,[9],12 µM (active)
same,AC50,[10],324 nM (active)
same,AC50,Paired box protein Pax-8,7.71 µM (active)
same,IC50,Fatty acid synthase [11],11.5 µM (active)
same,AC50,[12],18.8 µM (active)
same,EC50,[13],> 120 µM (not active)
same,AC50,[14],24.4 µM (active)
O=C(NCCCN1CCN(c2ccccc2F)CC1)C1CCC(=O)N1C1CCCCC1 (stereo unspecified),EC50,[15],76.1 µM (inactive)
same,EC50,Mu-type opioid receptor,92.5 µM (inactive)
NC(=O)SCC(=O)Nc1ccccc1C(=O)O,IC50,Beta-lactamase [16],> 59.6 µM (inactive)
same,IC50,Beta-lactamase [17],24.1 µM (inactive)
same,IC50,Beta-lactamase [18],> 59.6 µM (inactive)
CC(C)OCCCNC(=O)c1ccncc1,AC50,[19],37.6 µM (active)
Cc1nc2cc(-c3ccsc3-n3c(C)ccc3C)nn2c(O)c1Cl,IC50,[20],10.7 µM (active)
same,IC50,Estrogen receptor,27.5 µM (active)
same,IC50,[21],> 66.6 µM (inactive)
same,IC50,Estrogen receptor beta [22],7.66 µM (active)
same,IC50,Estrogen receptor beta [23],1.53 µM (not active)
Cc1cc(N2CCOCC2)c2c(N)c(Br)cc(C)c2n1,AC50,HEK293,8.08 µM (active)
same,IC50,Interleukin-8 [24],8.34 µM (active)
same,IC50,Interleukin-8 [25],> 79 µM (inactive)
COc1cccc(CNCc2ccccn2)c1OC,EC50,[26],299 nM (active)
same,EC50,[27],267 nM (active)
same,AC50,[28],116 µM (active)
O=C1/C(=C\c2ccc(Cl)c(Cl)c2)CN(C(=O)CCN2CCOCC2)C/C1=C/c1ccc(Cl)c(Cl)c1,IC50,[29],121 µM (active)
same,IC50,Beta Lactamase,31.4 µM (inactive)
same,AC50,[30],2.98 µM (active)
same,AC50,Paired box protein Pax-8,2.65 µM (active)
same,CC50,[31],16.9 µM (active)
same,IC50,[32],614 nM (active)
